Test results: patent US20120021905A1, “Pesticidal Mixtures” (priority 2009, published 2012)
Like-named read-outs stand apart in the source and are kept apart here.

Columns and labels:
Settings in all cases: 7 days after inoculation, 405 nm
[1] = tested on: Pyricularia oryzae; assay type: cell-based
[2] = tested on: Septoria tritici
[3] = tested on: Botrytis cinerea; assay: Microtest: activity against the grey mold Botrytis cinerea in the microtiterplate test (Botrci); assay type: cell-based

O=[N+]([O-])NC1=NCCN1Cc1ccc(Cl)nc1 [Imidacloprid, imidacloprid]
Observed efficacy ([1]; 63 ppm): 0 | Observed efficacy ([2]; 4 ppm): 2

N#Cc1nn(-c2c(Cl)cc(C(F)(F)F)cc2Cl)c(N)c1[S+]([O-])C(F)(F)F (stereo not drawn) [fipronil]
Observed efficacy ([3]; 0.016 ppm): 0 | Observed efficacy ([1]; 0.063 ppm): 0

C/C(=N\C#N)N(C)Cc1ccc(Cl)nc1 [acetamipyrid]
Observed efficacy ([1]; 63 ppm): 0

COCC(=O)N(c1c(C)cccc1C)C(C)C(=O)OC (stereo not drawn) [metalaxyl, Metalaxyl]
Observed efficacy ([1]; 4 ppm): 0

CN1COCN(Cc2cnc(Cl)s2)/C1=N\[N+](=O)[O-] [thiamethoxam]
Observed efficacy ([3]; 16 ppm): 0 | Observed efficacy ([1]; 1 ppm): 41 | Observed efficacy ([2]; 1 ppm): 62

COC(=O)N(OC)c1ccccc1COc1ccn(-c2ccc(Cl)cc2)n1 [Pyraclostrobin]
Observed efficacy ([1]; 0.001 ppm): 21 | Observed efficacy ([2]; 0.004 ppm): 49

CN/C(=N\[N+](=O)[O-])NCc1cnc(Cl)s1 [clothianidin]
Observed efficacy ([3]; 16 ppm): 0
